Calls of active or inactive are those of the source. No cut-off for these calls is given here.
Key:
[1] = system: MCF7; assay: Down regulation of ERalpha human MCF7 cells at 10 uM by Western blotting; format: functional, cell-based
[2] = molecular target: T1, Estrogen receptor (Homo sapiens) (UniProt P03372); assay: Antagonist activity at ERalpha in human MCF7/2a cells assessed as reduction in 1 nM estradiol-induced receptor activation by luciferase reporter gene assay relative to untreated control; format: functional, cell-based
T1 sequence (whole entry): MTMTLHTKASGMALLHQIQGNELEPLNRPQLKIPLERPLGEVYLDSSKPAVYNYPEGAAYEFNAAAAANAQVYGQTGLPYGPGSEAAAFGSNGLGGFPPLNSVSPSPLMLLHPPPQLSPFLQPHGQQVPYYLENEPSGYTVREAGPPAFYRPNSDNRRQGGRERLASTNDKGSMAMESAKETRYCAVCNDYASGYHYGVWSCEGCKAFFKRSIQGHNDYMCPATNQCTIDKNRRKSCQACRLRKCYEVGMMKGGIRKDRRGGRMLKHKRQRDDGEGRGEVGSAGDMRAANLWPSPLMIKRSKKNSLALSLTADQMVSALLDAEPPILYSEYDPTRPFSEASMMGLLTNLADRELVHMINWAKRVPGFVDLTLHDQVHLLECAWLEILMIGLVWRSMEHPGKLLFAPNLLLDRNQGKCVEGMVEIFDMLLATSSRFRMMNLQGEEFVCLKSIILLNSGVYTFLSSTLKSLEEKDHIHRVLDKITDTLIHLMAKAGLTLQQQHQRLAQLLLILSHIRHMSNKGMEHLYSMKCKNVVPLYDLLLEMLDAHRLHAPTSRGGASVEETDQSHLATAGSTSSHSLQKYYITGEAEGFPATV

[3] = molecular target: T2, Estrogen receptor (Homo sapiens, UniProt P03372); assay: Activation of human ERalpha expressed in human U2-OS cells by luciferase reporter gene assay relative to untreated control; format: cell-based, U2OS
T2 sequence (P03372 whole entry): T1 sequence (whole entry)

[4] = molecular target: T2, Estrogen receptor; assay: Activation of ERalpha in human MCF7/2a cells by luciferase reporter gene assay relative to untreated control; format: cell-based
[5] = molecular target: T1, Estrogen receptor (Homo sapiens); assay: Activation of ERalpha in human MCF7/2a cells pre-exposed to compound 1 to 3 hrs before 0.1 uM 4-OHT addition by luciferase reporter gene assay relative to untreated control; format: cell-based
[6] = molecular target: T1, Estrogen receptor (Homo sapiens); assay: Activation of ERalpha in human MCF7/2a cells in presence of 0.1 uM 4-OHT by luciferase reporter gene assay relative to untreated control; format: cell-based
[7] = Chemical stability in pH 7.3 PBS buffer at 10 uM at 37 degC; format: physicochemical
[8] = system: MCF7; assay: Cytotoxicity in hormone-dependent human MCF7 cells assessed as growth inhibition incubated for 4 day s by crystal violet assay; format: functional, cell-based; conditions: MCF7, 96 h
[9] = system: MCF7; assay: Stimulation of cell growth in human MCF7 cells incubated for 20 to 100 hrs by crystal violet assay; format: cell-based
[10] = Toxicity in hormone-independent human MDA-MB-231 cells assessed as growth inhibition incubated for 4 day s by crystal violet assay; format: cell-based

| Structure (SMILES) | EC50 [3] | EC50 [4] | Activity [5] | Activity [6] | half-life at 10 µM [7] | Activity [1] | Activity [2] | IC50 [8] | Activity [9] | IC50 at 4 days [10] |
| --- | --- | --- | --- | --- | --- | --- | --- | --- | --- | --- |
| CCCc1c(-c2ccc(O)cc2)cn(-c2ccc(O)cc2)c1-c1ccc(O)cc1 | 1.6 nM | 70 nM | Active | inactive | 7.04 days | – | – | – | – | – |
| Cn1c(-c2ccc(O)cc2)cc(-c2ccc(O)cc2)c1-c1ccc(O)cc1Cl | 16 nM | 600 nM | – | – | – | Active | inactive | 19100 nM | – | – |
| Cn1c(-c2ccc(O)cc2F)cc(-c2ccc(O)cc2)c1-c1ccc(O)cc1F | 15 nM | 290 nM | – | – | – | Active | inactive | 8500 nM | Non-toxic | – |
| Cn1c(-c2ccc(O)cc2Cl)cc(-c2ccc(O)cc2)c1-c1ccc(O)cc1 | 100 nM | – | – | – | – | inactive | inactive | 23800 nM | – | – |
| Cn1c(-c2ccc(O)cc2F)cc(-c2ccc(O)cc2)c1-c1ccc(O)cc1 | 24 nM | – | – | – | – | inactive | inactive | 25500 nM | – | – |
| CCCn1c(-c2ccc(O)cc2F)cc(-c2ccc(O)cc2F)c1-c1ccc(O)cc1F | 0.2 nM | 23 nM | – | – | 44 days | Active | inactive | 5600 nM | Non-toxic | 21900 nM |
| Cn1c(-c2ccc(O)cc2)cc(-c2ccc(O)cc2)c1-c1ccc(O)cc1F | 60 nM | – | – | – | – | inactive | inactive | 24700 nM | – | – |
| CCCc1c(-c2ccc(O)cc2)nn(-c2ccc(O)cc2)c1-c1ccc(O)cc1 [PROPYLPYRAZOLETRIOL] | 0.1 nM | 3 nM | – | – | – | Active | – | 27200 nM | – | – |

Continued, in another order:

| EC50 [3] | EC50 [4] | Activity [5] | Activity [6] | half-life at 10 µM [7] | Structure (SMILES) | Activity [1] | Activity [2] | IC50 [8] | Activity [9] | IC50 at 4 days [10] |
| --- | --- | --- | --- | --- | --- | --- | --- | --- | --- | --- |
| 0.67 nM | 240 nM | – | – | – | CCCn1c(-c2ccc(O)cc2F)cc(-c2ccc(O)cc2)c1-c1ccc(O)cc1 | Active | inactive | – | – | – |
| 47 nM | – | – | – | 61.4 days | CCCn1c(-c2ccc(O)cc2Cl)cc(-c2ccc(O)cc2)c1-c1ccc(O)cc1 | Active | inactive | – | – | – |
| 0.12 nM | 70 nM | – | – | 31 days | CCCn1c(-c2ccc(O)cc2)cc(-c2ccc(O)cc2)c1-c1ccc(O)cc1F | Active | inactive | – | – | – |
| 0.27 nM | 30 nM | Active | inactive | – | CCCn1c(-c2ccc(O)cc2F)cc(-c2ccc(O)cc2)c1-c1ccc(O)cc1F | Active | inactive | – | – | 20900 nM |
| 0.4 nM | 50 nM | Active | inactive | 10.7 days | CCCn1c(-c2ccc(O)cc2)cc(-c2ccc(O)cc2)c1-c1ccc(O)cc1 | – | – | – | – | – |
| 0.31 nM | 63 nM | – | – | – | CCCn1c(-c2ccc(O)cc2)cc(-c2ccc(O)cc2)c1-c1ccc(O)cc1Cl | Active | inactive | – | – | – |
| 0.84 nM | 26 nM | – | – | – | CCCn1c(-c2ccc(O)cc2)cc(-c2ccc(O)cc2F)c1-c1ccc(O)cc1 | Active | inactive | – | – | – |

Reference: ChEMBL document CHEMBL2176980, “Influence of chlorine or fluorine substitution on the estrogenic properties of 1-alkyl-2,3,5-tris(4-hydroxyphenyl)-1H-pyrroles” (J Med Chem, 2012)
